Columns and labels:
[1] = target: T1, Amine oxidase [flavin-containing] A (Homo sapiens, UniProt P21397); settings: 1 h, read-out: INH
T1 sequence (P21397 whole entry): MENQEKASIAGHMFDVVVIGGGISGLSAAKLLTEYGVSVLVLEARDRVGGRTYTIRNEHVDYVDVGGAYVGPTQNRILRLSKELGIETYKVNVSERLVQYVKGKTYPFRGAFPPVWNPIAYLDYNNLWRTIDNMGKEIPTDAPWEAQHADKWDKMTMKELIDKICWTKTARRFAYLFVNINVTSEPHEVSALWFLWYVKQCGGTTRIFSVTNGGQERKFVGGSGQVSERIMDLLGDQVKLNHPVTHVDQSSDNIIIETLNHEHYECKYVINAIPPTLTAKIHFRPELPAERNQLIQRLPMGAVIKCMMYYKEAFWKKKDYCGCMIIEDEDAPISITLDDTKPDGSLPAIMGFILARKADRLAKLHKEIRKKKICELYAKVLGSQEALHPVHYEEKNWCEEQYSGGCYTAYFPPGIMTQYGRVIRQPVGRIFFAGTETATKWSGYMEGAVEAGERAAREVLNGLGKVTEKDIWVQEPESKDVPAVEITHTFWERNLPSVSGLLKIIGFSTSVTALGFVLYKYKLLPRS
Description: Inhibition of MAOA (unknown origin) using kynuramine as substrate at 10 uM after 1 hr by fluorescence assay relative to control

[2] = target: T2, Amine oxidase [flavin-containing] B (Homo sapiens, UniProt P27338); settings: 1 h, read-out: INH
T2 sequence (P27338 whole entry): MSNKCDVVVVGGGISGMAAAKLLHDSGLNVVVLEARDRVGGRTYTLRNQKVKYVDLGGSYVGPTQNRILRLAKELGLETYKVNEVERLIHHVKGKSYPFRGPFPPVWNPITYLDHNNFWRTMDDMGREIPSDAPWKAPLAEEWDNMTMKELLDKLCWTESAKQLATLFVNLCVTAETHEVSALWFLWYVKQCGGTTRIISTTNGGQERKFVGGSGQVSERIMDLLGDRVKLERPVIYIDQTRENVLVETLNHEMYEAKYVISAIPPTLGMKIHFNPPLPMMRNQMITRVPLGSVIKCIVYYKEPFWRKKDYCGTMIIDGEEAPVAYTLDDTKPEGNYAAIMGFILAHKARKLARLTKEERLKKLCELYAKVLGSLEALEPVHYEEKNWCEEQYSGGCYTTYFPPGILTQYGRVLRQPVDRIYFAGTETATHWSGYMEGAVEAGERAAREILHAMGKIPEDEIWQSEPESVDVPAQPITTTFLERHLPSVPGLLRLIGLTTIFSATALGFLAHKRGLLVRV
Description: Inhibition of MAOB (unknown origin) using kynuramine as substrate at 10 uM after 1 hr by fluorescence assay relative to control

[3] = target: T2, Amine oxidase [flavin-containing] B; settings: 1 h, read-out: INH; remark: listed apart in the source
Description: Inhibition of MAOB (unknown origin) using kynuramine as substrate at 100 uM after 1 hr by fluorescence assay relative to control

[4] = target: T2, Amine oxidase [flavin-containing] B; settings: 1 h, read-out: INH; remark: listed apart in the source
Description: Inhibition of MAOB (unknown origin) using kynuramine as substrate at 500 uM after 1 hr by fluorescence assay relative to control

[5] = target: T2, Amine oxidase [flavin-containing] B; assay: Inhibition of MAOB (unknown origin) using kynuramine as substrate after 1 hr by fluorescence assay
[6] = target: T1, Amine oxidase [flavin-containing] A; assay: Inhibition of MAOA (unknown origin) using kynuramine as substrate after 1 hr by fluorescence assay
[7] = target: T1, Amine oxidase [flavin-containing] A; settings: 1 h, read-out: INH; remark: listed apart in the source
Description: Inhibition of MAOA (unknown origin) using kynuramine as substrate at 100 uM after 1 hr by fluorescence assay relative to control

[8] = target: T3, Lysine-specific histone demethylase 1A (Homo sapiens, UniProt O60341); assay: Inhibition of LSD1 (unknown origin) expressed in Sf9 cells using H3K4(me2) as substrate at 200 uM preincubated for 30 mins prior to substrate addition measured after 90 mins by horseradish peroxidase assay relative to control
[9] = target: T3, Lysine-specific histone demethylase 1A; assay: biochemical; assay type: cell-based, Sf9
Description: Inhibition of LSD1 (unknown origin) expressed in Sf9 cells using H3K4(me2) as substrate preincubated for 30 mins prior to substrate addition measured after 90 mins by horseradish peroxidase assay

Which results are given for `OC(CNC1CC1)COc1ccc(-c2ccccc2)cc1` (stereo unspecified)?
inhibition at 10 µM [1]: 100%; inhibition at 10 µM [2]: 100%

Which inhibition at 10 µM [1] does the source give for `C#CCNCCCOc1cccc(NC(=O)c2ccccc2)c1` here?
Its inhibition at 10 µM is 62%.

`OC(CNC1CC1)COc1ccccc1-c1ccccc1` (stereo unspecified) was tested. Which inhibition at 100 µM [3] did it give?
The inhibition at 100 µM was 45%.

`C#CCNCCCC[C@H](NC(=O)OCc1ccccc1)C(=O)OCc1ccccc1` was tested. Which inhibition at 500 µM [4] did it give?
Its inhibition at 500 µM is 67%.

Which IC50 [5] does the source give for `C#CCNCC(O)COc1ccc(-c2ccccc2)cc1` (stereo unspecified) here?
The IC50 was 0.06 µM.

What about the IC50 [6] of the same compound?
The IC50 was 0.55 µM.

Which inhibition at 100 µM [7] does the source give for `C#CCN(C)CCCC[C@H](NC(=O)OCc1ccccc1)C(=O)OCc1ccccc1` here?
Its inhibition at 100 µM is 36%.

`C#CCN(C)CC(O)COc1ccc2cc(Br)ccc2c1` (stereo unspecified) was tested. Which inhibition at 10 µM [2] did it give?
The inhibition at 10 µM was 100%.

Which inhibition at 100 µM [3] does the source give for `C#CCN(C)CC(O)COc1ccccc1-c1ccccc1` (stereo unspecified) here?
The inhibition at 100 µM was 30%.

`C#CCN(C)CC(O)COc1ccc2ccccc2c1` (stereo unspecified) was tested. Which inhibition at 10 µM [2] did it give?
Its inhibition at 10 µM is 29%.

How did the inhibition at 100 µM [3] turn out when `C#CCN(C)CC(O)COc1cccc2ccccc12` (stereo unspecified) was run?
Its inhibition at 100 µM is 32%.

Which IC50 [5] does the source give for `C#CCNCCCOc1cccc(C(=O)NCc2ccccc2)c1` here?
Its IC50 is 5.7 µM.

How did the inhibition at 10 µM [2] turn out when `OC(CNC1CC1)COc1ccc2ccccc2c1` (stereo unspecified) was run?
Its inhibition at 10 µM is 94%.

Which results are given for `C#CCNCCCOc1cccc(C(=O)NC(C)C)c1`?
inhibition at 100 µM [7]: 100%; IC50 [5]: 17 µM

For `C#CCNCC(O)COc1ccccc1-c1ccccc1` (stereo unspecified), which inhibition at 10 µM [1] is on record?
Its inhibition at 10 µM is 5%.

What about the inhibition at 100 µM [3] of the same compound?
The inhibition at 100 µM was 27%.

What about the inhibition [8] of the same compound?
The inhibition was 36.3%.

What does the source list for `C#CCN(C)CCCOc1cccc(NC(=O)c2ccccc2)c1`?
inhibition at 10 µM [1]: 73%; IC50 [5]: 0.1 µM

Which inhibition at 10 µM [2] does the source give for `C#CCN(C)CC(O)COc1ccc(-c2ccccc2)cc1` (stereo unspecified) here?
The inhibition at 10 µM was 100%.

Which IC50 [9] does the source give for `C#CCNCCCC[C@H](NC(=O)c1ccccc1)C(=O)OC(C)(C)C` here?
The IC50 was 144 µM.

Which IC50 [9] does the source give for `CC#CCNCCCC[C@H](NC(=O)c1ccccc1)C(=O)OC(C)(C)C` here?
Its IC50 is 132 µM.

And the inhibition at 500 µM [4]?
The inhibition at 500 µM was 51%.

And the inhibition at 100 µM [7]?
Its inhibition at 100 µM is 45%.

`C#CCNCC(O)COc1ccc2ccccc2c1` (stereo unspecified) was tested. Which inhibition at 10 µM [1] did it give?
Its inhibition at 10 µM is 65%.

What about the inhibition at 10 µM [2] of the same compound?
The inhibition at 10 µM was 19%.

For `OC(CNC1CC1)COc1ccc2cc(Br)ccc2c1` (stereo unspecified), which inhibition at 10 µM [1] is on record?
The inhibition at 10 µM was 100%.

What about the IC50 [9] of the same compound?
Its IC50 is 111 µM.

What about the inhibition at 10 µM [2] of the same compound?
The inhibition at 10 µM was 100%.
